Laboratory results from patent US10195185B2, “3-(1H-imidazo[4,5-C]pyridin-2-yl)-1H-pyrazolo[4,3-B]pyridines and therapeutic uses thereof” (Samumed, LLC, priority 2015, dated 2019).

Assays:
Type in all cases: cell-based
[1] = tested on: SW480 colon cancer cells; test: Cell viability assay (CellTiter-Blue), four days; details: Homo sapiens, 96 h; for inhibition at 10 µM: read-out: percent inhibition at 10 μM (given for EC50 of >10 μM); for EC50: CellTiter-Blue cell viability
How it was run: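 Four-day viability readout in SW480 cells: compound at 0.0045–10 μM (1:3 series), DMSO controls in eight replicates, CellTiter-Blue fluorescence after ~3 h. Values are regression-derived EC50s, or percent inhibition at 10 μM when EC50 exceeds 10 μM.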

[2] = tested on: Wnt activity (Wnt-responsive human Sp5 promoter, TCF/LEF binding sites) in SW480 colon carcinoma cells; test: Wnt activity screening assay: Sp5-Luc luciferase reporter gene in SW480 cells; details: for EC50: 10-point dose-response from 10 μM, incubated overnight; for inhibition at 10 µM: given for EC50 of >10 μM, read-out: percent inhibition at 10 μM
How it was run: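 Luminescence read-out (BrightGlo) from stable Sp5-Luc SW480 cells, normalized to DMSO-only wells. Cells were treated overnight at 37° C in 1% FBS medium across a 1:3, 10-point series starting at 10 μM. EC50 from variable-slope four-parameter regression; percent inhibition at 10 μM given where EC50 >10 μM.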

[3] = tested on: Primary human fibroblasts derived from IPF patients (LL29 cells) treated with TGF-β1; test: Inhibition of the fibrotic process: αSMA staining in TGF-β1 treated fibroblasts; details: Fibroblast, 96 h, LL29 fibroblasts treated with TGF-β1, 4 days; for inhibition at 10 µM: read-out: percent inhibition in brackets beside EC50 >10 μM
How it was run: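 Potency reflects suppression of TGF-β1-driven αSMA expression in IPF patient fibroblasts over 4 days. Values are EC50s from normalized αSMA-positive cell counts, with % inhibition at 10 μM when EC50 exceeded 10 μM.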

Row | EC50 [1] [µM] | EC50 [2] [µM] | SMILES | inhibition at 10 µM [1] [%] | inhibition at 10 µM [2] [%] | EC50 [3] [µM] | inhibition at 10 µM [3] [%]
1 | > 10 | > 10 | CCC(=O)Nc1cncc(-c2ccc3[nH]nc(-c4nc5c(-c6cccc(F)c6)nccc5[nH]4)c3n2)c1 [Compound 1, N-(5-(3-(4-(3-Fluorophenyl)-1H-imidazo[4,5-c]pyridin-2-yl)-1H-pyrazolo [4,3-b]pyridin-5-yl)pyridin-3-yl)propionamide] | 28 | 29.8 | > 10 | 0
2 | 0.775 | 0.456 | Cn1cc(-c2ccc3[nH]nc(-c4nc5c(-c6cccs6)nccc5[nH]4)c3n2)cn1 [Compound 700, 5-(1-Methyl-1H-pyrazol-4-yl)-3-(4-(thiophen-2-yl)-1H-imidazo[4,5-c]pyridin-2-yl)-1H-pyrazolo[4,3-b]pyridine] |  |  | 0.224 | 
3 | > 10 | > 10 | O=C(Nc1cncc(-c2ccc3[nH]nc(-c4nc5c(N6CCCCC6)nccc5[nH]4)c3n2)c1)C1CC1 [Compound 188, N-(5-(3-(4-(Piperidin-1-yl)-1H-imidazo[4,5-c]pyridin-2-yl)-1H-pyrazolo [4,3-b]pyridin-5-yl)pyridin-3-yl)cyclopropanecarboxamide] | 10.5 | 19 | > 10 | 0
4 | > 10 | > 10 | COc1cccc(-c2nccc3[nH]c(-c4n[nH]c5ccc(-c6cncc(NC(=O)CC(C)(C)C)c6)nc45)nc23)c1 [Compound 1006, N-(5-(3-(4-(3-methoxyphenyl)-1H-imidazo[4,5-c]pyridin-2-yl)-1H-pyrazolo [4,3-b]pyridin-5-yl)pyridin-3-yl)-3,3-dimethylbutanamide] | 0 | 16.6 | 2.5 | 
5 | > 10 | > 10 | Cc1ccncc1-c1ccc2[nH]nc(-c3nc4c(-c5ccncc5)nccc4[nH]3)c2n1 [Compound 117, 5-(4-Methylpyridin-3-yl)-3-(4-(pyridin-4-yl)-1H-imidazo[4,5-c]pyridin-2-yl)-1H-pyrazolo[4,3-b]pyridine] | 19.6 | 28 | > 10 | 0
6 | > 10 | 4.41 | CN(C)CCNc1cc(F)cc(-c2nccc3[nH]c(-c4n[nH]c5ccc(-c6cncc(OCCN7CCCC7)c6)nc45)nc23)c1 [Compound 786, N^1-(3-Fluoro-5-(2-(5-(5-(2-(pyrrolidin-1-yl)ethoxy)pyridin-3-yl)-1H-pyrazolo[4,3-b]pyridin-3-yl)-1H-imidazo[4,5-c]pyridin-4-yl)-5phenyl)-N^2,N^2-dimethylethane-1,2-diamine] | 15.9 |  | > 10 | 0
7 | > 10 | > 10 | CC(C)C(=O)Nc1cncc(-c2ccc3[nH]nc(-c4nc5c(N6CCN(C)CC6)nccc5[nH]4)c3n2)c1 [Compound 233, N-(5-(3-(4-(4-Methylpiperazin-1-yl)-1H-imidazo[4,5-c]pyridin-2-yl)-1H-pyrazolo[4,3-b]pyridin-5-yl)pyridin-3-yl)isobutyramide] | 1.6 | 6.4 | > 10 | 2.5
8 | > 10 | > 10 | CS(=O)(=O)NCc1cc(F)cc(-c2nccc3[nH]c(-c4n[nH]c5ccc(-c6cncc(NC(=O)CC7CCNCC7)c6)nc45)nc23)c1 [Compound 769, N-(5-(3-(4-(3-Fluoro-5-(methylsulfonamidomethyl)phenyl)-1H-imidazo[4,5-c]pyridin-2-yl)-1H-pyrazolo[4,3-b]pyridin-5-yl)pyridin-3-yl)-2-(piperidin-4-yl)acetamide] | 7.7 | 9.8 | 5.05 | 
9 | > 10 | > 10 | c1cc(-c2ccc3[nH]nc(-c4nc5c(-c6ccncc6)nccc5[nH]4)c3n2)ccn1 [Compound 130, 5-(pyridin-4-yl)-3-(4-(pyridin-4-yl)-1H-imidazo[4,5-c]pyridin-2-yl)-1H-pyrazolo[4,3-b]pyridine] | 0 | 7.5 | > 10 | 15.3
10 | > 10 | > 10 | O=C(Nc1cncc(-c2ccc3[nH]nc(-c4nc5cnccc5[nH]4)c3n2)c1)C1CCCCC1 [Compound 275, N-(5-(3-(1H-Imidazo[4,5-c]pyridin-2-yl)-1H-pyrazolo[4,3-b]pyridin-5-yl)pyridin-3-yl)cyclohexanecarboxamide] | 0 | 0 | > 10 | 28.8
11 | 1.1 | 2.09 | CCCC(=O)Nc1cncc(-c2ccc3[nH]nc(-c4nc5c(-c6ccsc6)nccc5[nH]4)c3n2)c1 [Compound 297, N-(5-(3-(4-(Thiophen-3-yl)-1H-imidazo[4,5-c]pyridin-2-yl)-1H-pyrazolo [4,3-b]pyridin-5-yl)pyridin-3-yl)butyramide] |  |  | > 10 | 16.1
12 | > 10 | > 10 | CCCC(=O)Nc1cncc(-c2ccc3[nH]nc(-c4nc5c(-c6ccncc6)nccc5[nH]4)c3n2)c1 [Compound 129, N-(5-(3-(4-(Pyridin-4-yl)-1H-imidazo[4,5-c]pyridin-2-yl)-1H-pyrazolo[4,3-b]pyridin-5-yl)pyridin-3-yl)butyramide] | 0 | 2.2 | > 10 | 0
13 | 0.439 | 0.356 | CC(C)Nc1cncc(-c2ccc3[nH]nc(-c4nc5c(-c6ccoc6)nccc5[nH]4)c3n2)c1 [Compound 320, 5-(3-(4-(Furan-3-yl)-1H-imidazo[4,5-c]pyridin-2-yl)-1H-pyrazolo[4,3-b]pyridin-5-yl)-N-isopropylpyridin-3-amine] |  |  | 0.17 | 
14 | > 10 | > 10 | O=C(Nc1cncc(-c2ccc3[nH]nc(-c4nc5c(-c6ccsc6)nccc5[nH]4)c3n2)c1)c1ccccc1 [Compound 291, N-(5-(3-(4-(Thiophen-3-yl)-1H-imidazo[4,5-c]pyridin-2-yl)-1H-pyrazolo [4,3-b]pyridin-5-yl)pyridin-3-yl)benzamide] | 2 | 3.3 | > 10 | 0
15 | > 10 | > 10 | Cn1cc(-c2ccc3[nH]nc(-c4nc5c(-c6ccc7c(c6)OCO7)nccc5[nH]4)c3n2)c(CO)n1 [Compound 1151, (4-(3-(4-(Benzo[d][1,3]dioxol-5-yl)-1H-imidazo[4,5-c]pyridin-2-yl)-1H-pyrazolo [4,3-b]pyridin-5-yl)-1-methyl-1H-pyrazol-3-yl)methanol] | 3.7 | 33.9 | > 10 | 0
16 | > 10 | > 10 | COc1cccc(-c2nccc3[nH]c(-c4n[nH]c5ccc(-c6cn[nH]c6)nc45)nc23)c1 [Compound 1020, 3-(4-(3-Methoxyphenyl)-1H-imidazo[4,5-c]pyridin-2-yl)-5-(1H-pyrazol-4-yl)-1H-pyrazolo[4,3-b]pyridine] | 6.4 | 5.7 | > 10 | 0
17 | > 10 | > 10 | O=C(CC1CCNCC1)Nc1cncc(-c2ccc3[nH]nc(-c4nc5c(-c6ccsc6)nccc5[nH]4)c3n2)c1 [Compound 673, 2-(Piperidin-4-yl)-N-(5-(3-(4-(thiophen-3-yl)-1H-imidazo[4,5-c]pyridin-2-yl)-1H-pyrazolo[4,3-b]pyridin-5-yl)pyridin-3-yl)acetamide] | 6.6 | 22.6 | 1.07 | 
18 | > 10 | 0.235 | Cc1ncc(-c2ccc3[nH]nc(-c4nc5c(-c6cccc(F)c6)nccc5[nH]4)c3n2)s1 [Compound 1126, 5-(3-(4-(3-Fluorophenyl)-1H-imidazo[4,5-c]pyridin-2-yl)-1H-pyrazolo[4,3-b]pyridin-5-yl)-2-methylthiazole] | 26.6 |  | 0.203 | 
19 | > 10 | > 10 | CN1CCN(c2nccc3[nH]c(-c4n[nH]c5ccc(-c6cncnc6)nc45)nc23)CC1 [Compound 251, 3-(4-(4-Methylpiperazin-1-yl)-1H-imidazo[4,5-c]pyridin-2-yl)-5-(pyrimidin-5-yl)-1H-pyrazolo[4,3-b]pyridine] | 0 | 17.7 | > 10 | 17.7
20 | 3.91 | 3.65 | c1ccc(CNCc2cncc(-c3ccc4[nH]nc(-c5nc6c(-c7ccsc7)nccc6[nH]5)c4n3)c2)cc1 [Compound 304, N-Benzyl-1-(5-(3-(4-(thiophen-3-yl)-1H-imidazo[4,5-c]pyridin-2-yl)-1H-pyrazolo [4,3-b]pyridin-5-yl)pyridin-3-yl)methanamine] |  |  | 6.56 | 
